This series is described as follows: Human HepG2 cell viability assay in 384 well format. It counts as toxicity, cell-based. Details: dose 125 nL, time 70.5 hour; cytotoxicity at 70.5 h: concentration not given beside the values. To be noted: HepG2 cells, read-out: Inhibition.
Regarding `O=C(NCc1ccncc1)N1CCSCC1CCO` (stereo not drawn), the cytotoxicity at 70.5 h is 10.5%.

With `CC(C)C(NC(=O)c1ccco1)C(=O)N1CCC2(CC1)OCCO2` (stereo not drawn), the cytotoxicity at 70.5 h is 17.8%.

Turning to `COc1ccccc1CCNC(=O)NC(C)COCC(F)(F)F` (stereo not drawn), the cytotoxicity at 70.5 h was -5.34%.

With `N#Cc1cccc(NC(=O)N2CCCC(N3CCCC3=O)C2)c1` (stereo not drawn), the cytotoxicity at 70.5 h is 0.781%.

In the case of `N#Cc1nccnc1NC1CCN(c2ccccc2Br)C1` (stereo not drawn), the cytotoxicity at 70.5 h came to 11.1%.

Consider `Cn1cccc(NC(=O)COc2ccc(Cl)cc2)c1=O`, for which the cytotoxicity at 70.5 h was -1.21%.

In the case of `COCC(C)NC(=O)NCCc1cccc(OC)c1O` (stereo not drawn), the cytotoxicity at 70.5 h came out at 8.57%.

With `N#Cc1nccnc1NCCC1CCN(CC(F)(F)F)CC1`, the cytotoxicity at 70.5 h came to 21.7%.

With `FC(F)(F)CN1CCC(CCNc2ncccn2)CC1`, the cytotoxicity at 70.5 h was 0.447%.

For `FC(F)c1nnc2ccc(N3CCC4(CCCCC4)C3)nn12`, the cytotoxicity at 70.5 h is -3.87%.

With `CC(C)OCCS(=O)(=O)c1ccccc1C#N`, the cytotoxicity at 70.5 h amounted to 11.2%.

`N#Cc1nccnc1NC1CCN(c2c(F)cccc2F)C1` (stereo not drawn): the cytotoxicity at 70.5 h was -4.72%.

Take `COc1ccc2c(c1)C(=O)N(C)C1(CCN(C(=O)OC(C)(C)C)CC1)N2`: the cytotoxicity at 70.5 h was found to be 1.71%.

`NS(=O)(=O)CCN1CCOC(c2ccc(Cl)cc2)C1` (stereo not drawn): the cytotoxicity at 70.5 h amounted to 2.97%.

On to `Cc1ccccc1S(=O)(=O)CCOC(C)C`, for which the cytotoxicity at 70.5 h is 9.57%.

For `CCCS(=O)(=O)CCN1CCOC(c2ccsc2)C1` (stereo not drawn), the cytotoxicity at 70.5 h was -2.47%.

As to `CCc1nnc2n1CCN(C(=O)c1ccccc1OCC1CC1)C2`, the cytotoxicity at 70.5 h worked out at 0.159%.

On to `Cc1c(C(=O)N(C)CC(C)O)sc2nc(C(F)(F)F)ccc12` (stereo not drawn), for which the cytotoxicity at 70.5 h is -9.55%.

Turning to `CCS(=O)(=O)NCCNC(=O)N(Cc1ccc(C)o1)C(C)C`, the cytotoxicity at 70.5 h is -13.2%.

As for `COc1cccc2c1N(Cc1nc3c(cnn3C)c(=O)[nH]1)CCC2`, the cytotoxicity at 70.5 h stood at 22.2%.

With `Cn1ncc2c(=O)[nH]c(CN3CCCc4cc(F)cc(F)c43)nc21`, the cytotoxicity at 70.5 h was -15.9%.

Consider `CC(=O)N1Cc2ccccc2C[C@H]1C(=O)Nc1ccccn1`, for which the cytotoxicity at 70.5 h was -12%.

Take `CCN(CC)Cc1ccc(C(=O)NC2CCc3cc(Br)ccc32)o1` (stereo not drawn): the cytotoxicity at 70.5 h was -24.6%.

For `CCN(CC(=O)NCc1nc(C2CC2)no1)Cc1ccc(Cl)cc1`, the cytotoxicity at 70.5 h is -15.6%.

For `Cc1cc(C2CCCN(CC(=O)N3CCc4ccccc43)C2)n[nH]1` (stereo not drawn), the cytotoxicity at 70.5 h is -6.5%.

With `Cn1ccnc1CNCCNc1ncc(Cl)cc1Cl`, the cytotoxicity at 70.5 h was -5.95%.

Regarding `COc1ccc(C(NCc2cccc(O)c2)C2CC2)cc1` (stereo not drawn), the cytotoxicity at 70.5 h stood at 16.8%.

In the case of `CC(C)OCCN1CCN(c2ccc(CN(C)C)cn2)CC1`, the cytotoxicity at 70.5 h is 8.47%.

Take `CN(C)C(=O)N1CCN(C(=O)c2ccc(Cl)c(Cl)c2)C(C)(C)C1`: the cytotoxicity at 70.5 h is 0.62%.

In the case of `COc1ccc(CN(C)CC(=O)Nc2ccc3[nH]c(=O)[nH]c3c2)cc1F`, the cytotoxicity at 70.5 h is -8.14%.

For the compound `CN(CC(=O)c1ccc2[nH]c(=O)[nH]c2c1)Cc1ccc2c(c1)OCO2`, the cytotoxicity at 70.5 h is -3.13%.

With `COc1ccc(CN(C)CC(=O)c2ccc3[nH]c(=O)[nH]c3c2)cc1F`, the cytotoxicity at 70.5 h was -6.51%.

As to `O=C(c1ccc(F)cc1F)N1CCN(C(=O)C2CCCCC2)CC1`, the cytotoxicity at 70.5 h is -5.82%.

In the case of `Cc1cn2nc(Sc3nnc(C(C)C)n3C)sc2n1`, the cytotoxicity at 70.5 h is -10.9%.

Regarding `CCc1nnc(Sc2nn3cc(C)nc3s2)n1C`, the cytotoxicity at 70.5 h was -2.38%.

Take `CCOc1ccc(Cl)cc1NC(=O)N1CCC(n2cncn2)CC1`: the cytotoxicity at 70.5 h was -7.8%.

For the compound `CCOc1ccc(NC(=O)N2CCC(n3cncn3)CC2)cc1Cl`, the cytotoxicity at 70.5 h was found to be 19.7%.

For `O=C(c1occc1CN1C(=O)Cc2ccccc21)N1CCCCCC1`, the cytotoxicity at 70.5 h is -3.4%.

For the compound `O=C(c1cc(F)ccc1O)N1CCN(C2CCSC2)CC1` (stereo not drawn), the cytotoxicity at 70.5 h was -8.37%.

On to `O=C(c1occc1CN1C(=O)Cc2ccccc21)N1CC(O)C1`, for which the cytotoxicity at 70.5 h was -1.51%.

Turning to `Cc1cc(C)cc(C(=O)N2CCN(C(=O)N(C)C)CC2(C)C)c1`, the cytotoxicity at 70.5 h is -0.125%.

With `Cc1noc(CN2CCC(Cc3ccc(F)cc3)CC2)n1`, the cytotoxicity at 70.5 h was -9.61%.

On to `CCN(C)C(=O)CCN(C)Cc1cnc(C)s1`, for which the cytotoxicity at 70.5 h is -0.298%.

Turning to `COc1ccc(C2CCCN2Cc2cnn(C)c2)cc1` (stereo not drawn), the cytotoxicity at 70.5 h is -9.31%.

Regarding `CC(SCC(=O)N(C)CC(=O)NC1CC1)c1ccccc1F` (stereo not drawn), the cytotoxicity at 70.5 h was -5.51%.

For `COCCN1CCCN(C(=O)c2oc(C)nc2C)CC1`, the cytotoxicity at 70.5 h was -7.73%.

As to `CC(=O)NC(C(=O)N(C)Cc1nnc2n1CCC2)C(C)C` (stereo not drawn), the cytotoxicity at 70.5 h was 22.2%.

Consider `Cc1cnn(CC(C)NCC(=O)NCCc2cccs2)c1` (stereo not drawn), for which the cytotoxicity at 70.5 h came out at 10.8%.

`Brc1cccc(C2(CNCc3cc[nH]c3)CCOCC2)c1`: the cytotoxicity at 70.5 h came to 17.6%.

For the compound `Cc1cc(C(C)NC(=O)c2ccc(O)nc2)c(C)o1` (stereo not drawn), the cytotoxicity at 70.5 h worked out at 2.4%.

On to `Cc1oc(-c2cccs2)nc1C(=O)N(C)C1(C#N)CCC1`, for which the cytotoxicity at 70.5 h is -17.6%.

With `CC(C(=O)N(C)Cc1nnc2n1CCC2)S(C)(=O)=O` (stereo not drawn), the cytotoxicity at 70.5 h was -1.23%.

As for `CC(O)CN1CCC(CNCc2ccc(C#N)cc2)CC1` (stereo not drawn), the cytotoxicity at 70.5 h amounted to 0.277%.

`CC(O)CN1CCC(CN(C)Cc2ccc(C(N)=O)cc2)CC1` (stereo not drawn): the cytotoxicity at 70.5 h is -9.95%.

On to `CCC(C)CS(=O)(=O)NC(=O)C1CC1` (stereo not drawn), for which the cytotoxicity at 70.5 h was -5.06%.

As to `OCCn1nnnc1Cc1ccc(Br)cc1`, the cytotoxicity at 70.5 h was -6.7%.

As to `CCc1cnc(N2CCN(Cc3ccno3)CC2)s1`, the cytotoxicity at 70.5 h is -1.37%.

As for `Cc1ccc(CN(C)C)cc1NC(=O)C1CC=CC1`, the cytotoxicity at 70.5 h was -3.31%.

As to `Cc1cc(C(C)NC(=O)c2c[nH]c(=O)c(Cl)c2)c(C)o1` (stereo not drawn), the cytotoxicity at 70.5 h is -1.21%.

`CC(O)CN1CCC(CN(C)Cc2cccc(C#N)c2)CC1` (stereo not drawn): the cytotoxicity at 70.5 h was -2.33%.

Regarding `CC(O)CN1CCC(CN(C)Cc2ccc(C#N)cc2F)CC1` (stereo not drawn), the cytotoxicity at 70.5 h was found to be 6.92%.

Turning to `CC(C)OCCCNC(=O)N(C)C(C)c1ccc(-n2cncn2)cc1` (stereo not drawn), the cytotoxicity at 70.5 h is -6.64%.

`CC(CNC(=O)NCc1ccsc1)CC1(C)OCCO1` (stereo not drawn): the cytotoxicity at 70.5 h was -8.79%.

Take `Cc1cccnc1CSCCCNS(C)(=O)=O`: the cytotoxicity at 70.5 h was -5.33%.

For `CC(O)CN1CCC(CN(C)Cc2ccc(C#N)cc2)CC1` (stereo not drawn), the cytotoxicity at 70.5 h is -11%.

With `Clc1nc2ccccn2c1CNCC1CN(C2CC2)CCO1` (stereo not drawn), the cytotoxicity at 70.5 h amounted to 4.07%.

Consider `N#Cc1ccc(CNc2cnn(CCN3CCOCC3)c2)cc1`, for which the cytotoxicity at 70.5 h came out at 42.1%.

Turning to `Cc1cc(C(=O)O)c2c(Br)cccc2n1`, the cytotoxicity at 70.5 h was -13.5%.

As for `Cc1noc(C)c1CN(C)C(=O)CCn1c(=O)n(C)c2ccccc21`, the cytotoxicity at 70.5 h was -12.2%.

For `CN(C(=O)c1ccc(S(=O)(=O)NC(C)(C)C)cc1)C1(C#N)CCC1`, the cytotoxicity at 70.5 h is -17.4%.

In the case of `Cc1cc2ccccc2n1CC(=O)Nc1ccnn1CC1CCOC1` (stereo not drawn), the cytotoxicity at 70.5 h was -14.7%.

Take `CCC(C)NS(=O)(=O)c1ccc(C(=O)N(C)C2(C#N)CCC2)cc1` (stereo not drawn): the cytotoxicity at 70.5 h is -23.6%.

Regarding `O=C(COc1ccc2c(c1)CCC2)N1CCCC1c1ccc[nH]1` (stereo not drawn), the cytotoxicity at 70.5 h is -23.1%.

As to `Cc1noc(C)c1CN(C)Cn1c(=O)n(C)c2ccccc21`, the cytotoxicity at 70.5 h is -6.45%.

With `NC(=O)C1CCN(C(=O)Cn2nc(-c3ccccc3)oc2=O)C1` (stereo not drawn), the cytotoxicity at 70.5 h was -5.69%.

Consider `CCc1nc(CN2CCN(c3ncnc4cc(F)ccc34)CC2)no1`, for which the cytotoxicity at 70.5 h came to 24.8%.

For the compound `CC(C)C1CN(C(=O)c2ccc(C(N)=O)cc2)CCS1` (stereo not drawn), the cytotoxicity at 70.5 h is -6%.

Take `O=C(NC1(c2cccc(F)c2)CCOCC1)c1cc[nH]n1`: the cytotoxicity at 70.5 h is -4.33%.

On to `CC(C)C1CN(C(=O)c2nccnc2N)CCS1` (stereo not drawn), for which the cytotoxicity at 70.5 h was -4.8%.

On to `CC(C)(C)OC(=O)N1CCCc2ccc(NCc3ncc[nH]3)cc21`, for which the cytotoxicity at 70.5 h is 9.84%.

Take `O=C(NC1CCCC1)NC1CCC(C(=O)N2CCSCC2)CC1` (stereo not drawn): the cytotoxicity at 70.5 h was -9.08%.

With `Cc1cccc(S(=O)(=O)NCC(C)N2CCN(C)CC2)c1Cl` (stereo not drawn), the cytotoxicity at 70.5 h is -1.95%.

As to `O=C(C(CNCc1ccsc1)c1ccccc1)N1CCOCC1` (stereo not drawn), the cytotoxicity at 70.5 h is -2.8%.

`COCCc1noc(CNC2CCCN(c3cccnn3)C2)n1` (stereo not drawn): the cytotoxicity at 70.5 h was determined as 11%.

On to `Cc1n[nH]cc1CNc1ccc2c(c1)CN(C(=O)OC(C)(C)C)CC2`, for which the cytotoxicity at 70.5 h is -6.16%.

In the case of `CN(Cc1ccc(N2CCCCC2)cc1)Cc1noc(C(C)(C)C)n1`, the cytotoxicity at 70.5 h is -9.02%.

For the compound `CC(O)CN1CCN(Cc2csc(-c3ncccn3)n2)CC1` (stereo not drawn), the cytotoxicity at 70.5 h amounted to 5.33%.

Turning to `Cc1n[nH]c(C2CN(C(=O)CCc3ccco3)CCO2)n1` (stereo not drawn), the cytotoxicity at 70.5 h was found to be 9.82%.

Regarding `COc1cc(C(=O)N(Cc2ccc(F)cc2)C2CC2)cc2c1OCCO2`, the cytotoxicity at 70.5 h came out at 17.8%.

As for `Cc1ccsc1CN(C)C(=O)Cn1nc(-c2ccc(F)cc2)oc1=O`, the cytotoxicity at 70.5 h was found to be 4.04%.

Take `CN(Cc1ccc(F)cc1)C(=O)Cn1nc(-c2ccc(F)cc2)oc1=O`: the cytotoxicity at 70.5 h was found to be 26.3%.

As to `CN(Cc1ccccc1Br)C(=O)Cn1nc(-c2ccc(F)cc2)oc1=O`, the cytotoxicity at 70.5 h was -8.06%.

Take `O=C(COc1cccc2c1CCC2=O)NCCSc1ccccc1`: the cytotoxicity at 70.5 h was 3.81%.

Consider `COc1ccc(CS(=O)(=O)CC(=O)NCC2CC2)cc1F`, for which the cytotoxicity at 70.5 h is -3.56%.

On to `O=C(Cc1c[nH]c2ccccc12)N1CCN(C(=O)c2ccoc2)CC1`, for which the cytotoxicity at 70.5 h was found to be 1.6%.

As for `CC(CN1CCOCC1)NC(=O)NCc1ccc(Cl)s1` (stereo not drawn), the cytotoxicity at 70.5 h is -7.44%.

Take `CCOCCCC(=O)NCc1cn2cc(Br)ccc2n1`: the cytotoxicity at 70.5 h was -3.96%.

For the compound `COc1ccc(-c2nnc(SCC(=O)NCC(C)C)[nH]2)c(OC)c1`, the cytotoxicity at 70.5 h was -7.35%.

For the compound `CCc1cc(NCc2ccccc2CN2CCCC2)n2ncnc2n1`, the cytotoxicity at 70.5 h is 29.1%.

As for `CCc1cc(NCC(O)CN2CCCCC2)n2ncnc2n1` (stereo not drawn), the cytotoxicity at 70.5 h is 1.39%.

With `COC(=O)[C@H](C)NC(=O)c1cc(-c2cccc(Cl)c2)no1`, the cytotoxicity at 70.5 h is 2%.

For the compound `Brc1ccc(CNCc2nnc3n2CCCCC3)s1`, the cytotoxicity at 70.5 h was -16.6%.

As to `Fc1cccc(-c2c[nH]c(C3CCCN3)n2)c1` (stereo not drawn), the cytotoxicity at 70.5 h came out at 0.492%.

The values above are taken from ChEMBL document CHEMBL3507680, “University of Dundee, Gates Library screen for HepG2 cell viability”.
